Assay results as given in patent US9290457B2, “Substituted dihydropyrimidinones and their use as inhibitors of neutrophil elastase activity” (Boehringer Ingelheim International GmbH, priority 2014, dated 2016).

Each compound was assayed against neutrophil elastase (Homo sapiens (Human), UniProt P08246) (assay: Human Neutrophil Elastase Assay). Settings: substrate MeOSuc-Ala-Ala-Pro-Val-AMC.
Type: biochemical
Method: Human Neutrophil Elastase Assay
All other materials were of the highest grade commercially available.
The following buffers were used: Compound buffer: 100 mM Tris, 500 mM NaCl, adjusted to pH 7.5; Assay buffer: 100 mM Tris, 500 mM NaCl, adjusted to pH 7.5, containing 0.01% BSA.
Assay conditions: Test compounds were prediluted in DMSO and subsequently in compound buffer (5% DMSO final). […] After inactivation of the enzyme, fluorescence intensities were measured at 380 nm excitation and 460 nm emission wavelengths.
Each plate contains wells with a high value control (DMSO+enzyme+substrate) and wells with a low value control (DMSO+inactivated enzyme+substrate). IC50 values were estimated using a sigmoidal concentration response curve with variable slope. Means of low values were taken as 0%, means of high values as 100%.

Chain of neutrophil elastase (P08246 30-247): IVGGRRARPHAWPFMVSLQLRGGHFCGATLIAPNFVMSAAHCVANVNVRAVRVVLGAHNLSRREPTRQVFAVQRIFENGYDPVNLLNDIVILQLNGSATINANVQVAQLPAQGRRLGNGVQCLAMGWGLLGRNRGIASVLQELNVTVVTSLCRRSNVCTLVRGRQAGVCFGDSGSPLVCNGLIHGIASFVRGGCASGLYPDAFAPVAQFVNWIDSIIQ

SMILES | IC50 [nM]
CC(=O)C1=C(C)N(c2cccc(C(F)(F)F)c2)C(=O)N(C)C1c1ccc(C#N)cc1C(=O)NCCS(C)(=O)=O (stereo not shown) [Example 1.29] | < 1
CC(=O)C1=C(C)N(c2cccc(C(F)(F)F)c2)C(=O)N(C)C1c1ccc(C#N)cc1C(=O)N(C)Cc1cnn(C)c1 (stereo not shown) [Example 1.30] | < 1
CC(=O)C1=C(C)N(c2cccc(C(F)(F)F)c2)C(=O)N(C)C1c1ccc(C#N)cc1C(=O)NC1CCS(=O)(=O)C1 (stereo not shown) [Example 1.31] | < 1
CC(=O)C1=C(C)N(c2cccc(C(F)(F)F)c2)C(=O)N(C)C1c1ccc(C#N)cc1C(=O)NC1(C#N)CC1 (stereo not shown) [Example 1.32] | < 1
CC(=O)C1=C(C)N(c2cccc(C(F)(F)F)c2)C(=O)N(C)C1c1ccc(C#N)cc1C(=O)NC(C)(C)C#N (stereo not shown) [Example 1.33] | 1.8
CC(=O)C1=C(C)N(c2cccc(C(F)(F)F)c2)C(=O)N(C)C1c1ccc(C#N)cc1C(=O)NCc1ccoc1 (stereo not shown) [Example 1.34] | < 1
CC(=O)C1=C(C)N(c2cccc(C(F)(F)F)c2)C(=O)N(C)C1c1ccc(C#N)cc1C(=O)NCc1ccco1 (stereo not shown) [Example 1.35] | < 1
CC(=O)C1=C(C)N(c2cccc(C(F)(F)F)c2)C(=O)N(C)C1c1ccc(C#N)cc1C(=O)NCc1cn[nH]c1 (stereo not shown) [Example 1.36] | < 1
CC(=O)C1=C(C)N(c2cccc(C(F)(F)F)c2)C(=O)N(C)C1c1ccc(C#N)cc1C(=O)NCc1ncco1 (stereo not shown) [Example 1.37] | < 1
CC(=O)C1=C(C)N(c2cccc(C(F)(F)F)c2)C(=O)N(C)C1c1ccc(C#N)cc1C(=O)NCc1ccno1 (stereo not shown) [Example 1.38] | < 1
CC(=O)C1=C(C)N(c2cccc(C(F)(F)F)c2)C(=O)N(C)C1c1ccc(C#N)cc1C(=O)NCc1cnoc1 (stereo not shown) [Example 1.39] | < 1
CC(=O)C1=C(C)N(c2cccc(C(F)(F)F)c2)C(=O)N(C)C1c1ccc(C#N)cc1C(=O)NCc1cnco1 (stereo not shown) [Example 1.40] | < 1
CC(=O)C1=C(C)N(c2cccc(C(F)(F)F)c2)C(=O)N(C)C1c1ccc(C#N)cc1C(=O)NCc1ccon1 (stereo not shown) [Example 1.41] | < 1
CC(=O)C1=C(C)N(c2cccc(C(F)(F)F)c2)C(=O)N(C)C1c1ccc(C#N)cc1C(=O)NCc1cocn1 (stereo not shown) [Example 1.42] | < 1
CC(=O)C1=C(C)N(c2cccc(C(F)(F)F)c2)C(=O)N(C)C1c1ccc(C#N)cc1C(=O)NC1CCN(C)C1 (stereo not shown) [Example 1.43] | < 1
CC(=O)C1=C(C)N(c2cccc(C(F)(F)F)c2)C(=O)N(C)C1c1ccc(C#N)cc1C(=O)N(C)CCN(C)C (stereo not shown) [Example 1.44] | < 1
CC(=O)C1=C(C)N(c2cccc(C(F)(F)F)c2)C(=O)N(C)C1c1ccc(C#N)cc1C(=O)NCc1ccccc1 (stereo not shown) [Example 1.45] | 1
CC(=O)C1=C(C)N(c2cccc(C(F)(F)F)c2)C(=O)N(C)C1c1ccc(C#N)cc1C(=O)NCc1ccccn1 (stereo not shown) [Example 1.46] | < 1
CC(=O)C1=C(C)N(c2cccc(C(F)(F)F)c2)C(=O)N(C)C1c1ccc(C#N)cc1C(=O)NCc1cccnc1 (stereo not shown) [Example 1.48] | < 1
CC(=O)C1=C(C)N(c2cccc(C(F)(F)F)c2)C(=O)N(C)C1c1ccc(C#N)cc1C(=O)NCc1ccnnc1 (stereo not shown) [Example 1.49] | < 1
CC(=O)C1=C(C)N(c2cccc(C(F)(F)F)c2)C(=O)N(C)C1c1ccc(C#N)cc1C(=O)NCc1cccnn1 (stereo not shown) [Example 1.50] | < 1
CC(=O)C1=C(C)N(c2cccc(C(F)(F)F)c2)C(=O)N(C)C1c1ccc(C#N)cc1C(=O)NC(C)c1ccco1 (stereo not shown) [Example 1.51] | 1.4
CC(=O)C1=C(C)N(c2cccc(C(F)(F)F)c2)C(=O)N(C)C1c1ccc(C#N)cc1C(=O)NCc1cncn1C (stereo not shown) [Example 1.52] | < 1

SMILES | IC50 [nM]
CC(=O)C1=C(C)N(c2cccc(C(F)(F)F)c2)C(=O)N(C)C1c1ccc(C#N)cc1C(=O)NCc1ccnn1C (stereo not shown) [Example 1.53] | < 1
CC(=O)C1=C(C)N(c2cccc(C(F)(F)F)c2)C(=O)N(C)C1c1ccc(C#N)cc1C(=O)NCc1cnn(C)c1 (stereo not shown) [Example 1.54] | < 1
CC(=O)C1=C(C)N(c2cccc(C(F)(F)F)c2)C(=O)N(C)C1c1ccc(C#N)cc1C(=O)NCc1ccn(C)n1 (stereo not shown) [Example 1.55] | < 1
CC(=O)C1=C(C)N(c2cccc(C(F)(F)F)c2)C(=O)N(C)C1c1ccc(C#N)cc1C(=O)N(C)Cc1cn[nH]c1 (stereo not shown) [Example 1.56] | 0.3
CC(=O)C1=C(C)N(c2cccc(C(F)(F)F)c2)C(=O)N(C)C1c1ccc(C#N)cc1C(=O)NCc1nccn1C (stereo not shown) [Example 1.57] | < 1
CC(=O)C1=C(C)N(c2cccc(C(F)(F)F)c2)C(=O)N(C)C1c1ccc(C#N)cc1C(=O)NCc1cn(C)cn1 (stereo not shown) [Example 1.58] | < 1
CC(=O)C1=C(C)N(c2cccc(C(F)(F)F)c2)C(=O)N(C)C1c1ccc(C#N)cc1C(=O)N(C)Cc1ccon1 (stereo not shown) [Example 1.59] | < 1
CC(=O)C1=C(C)N(c2cccc(C(F)(F)F)c2)C(=O)N(C)C1c1ccc(C#N)cc1C(=O)N(C)Cc1ccno1 (stereo not shown) [Example 1.60] | < 1
CC(=O)C1=C(C)N(c2cccc(C(F)(F)F)c2)C(=O)N(C)C1c1ccc(C#N)cc1C(=O)NCc1nncn1C (stereo not shown) [Example 1.61] | < 1.3
CC(=O)C1=C(C)N(c2cccc(C(F)(F)F)c2)C(=O)N(C)C1c1ccc(C#N)cc1C(=O)NCc1nnnn1C (stereo not shown) [Example 1.62] | < 1
CC(=O)C1=C(C)N(c2cccc(C(F)(F)F)c2)C(=O)N(C)C1c1ccc(C#N)cc1C(=O)N1CC[C@@H](N(C)C)C1 (stereo partly shown) [Example 1.63] | 1.8
CC(=O)C1=C(C)N(c2cccc(C(F)(F)F)c2)C(=O)N(C)C1c1ccc(C#N)cc1C(=O)N1CC[C@H](N(C)C)C1 (stereo partly shown) [Example 1.64] | < 1
CCN1CCN(C(=O)c2cc(C#N)ccc2C2C(C(C)=O)=C(C)N(c3cccc(C(F)(F)F)c3)C(=O)N2C)CC1 (stereo not shown) [Example 1.65] | 4.1
CC(=O)C1=C(C)N(c2cccc(C(F)(F)F)c2)C(=O)N(C)C1c1ccc(C#N)cc1C(=O)N1Cc2ccncc2C1 (stereo not shown) [Example 1.66] | 1.7
CC(=O)C1=C(C)N(c2cccc(C(F)(F)F)c2)C(=O)N(C)C1c1ccc(C#N)cc1C(=O)NCc1ccc(C#N)o1 (stereo not shown) [Example 1.67] | 1.3
CC(=O)C1=C(C)N(c2cccc(C(F)(F)F)c2)C(=O)N(C)C1c1ccc(C#N)cc1C(=O)N(C)Cc1ccncc1 (stereo not shown) [Example 1.68] | < 1
CC(=O)C1=C(C)N(c2cccc(C(F)(F)F)c2)C(=O)N(C)C1c1ccc(C#N)cc1C(=O)N1CCn2cncc2C1 (stereo not shown) [Example 1.69] | < 1
CC(=O)C1=C(C)N(c2cccc(C(F)(F)F)c2)C(=O)N(C)C1c1ccc(C#N)cc1C(=O)N1CCn2ccnc2C1 (stereo not shown) [Example 1.70] | < 1
CC(=O)C1=C(C)N(c2cccc(C(F)(F)F)c2)C(=O)N(C)C1c1ccc(C#N)cc1C(=O)N1Cc2cnn(C)c2C1 (stereo not shown) [Example 1.71] | < 1
CC(=O)C1=C(C)N(c2cccc(C(F)(F)F)c2)C(=O)N(C)C1c1ccc(C#N)cc1C(=O)N1CCc2nocc2C1 (stereo not shown) [Example 1.72] | 2.8
CC(=O)C1=C(C)N(c2cccc(C(F)(F)F)c2)C(=O)N(C)C1c1ccc(C#N)cc1C(=O)N1CCn2cnnc2C1 (stereo not shown) [Example 1.74] | < 1
CC(=O)C1=C(C)N(c2cccc(C(F)(F)F)c2)C(=O)N(C)C1c1ccc(C#N)cc1C(=O)N(C)Cc1nccn1C (stereo not shown) [Example 1.75] | < 1
CC(=O)C1=C(C)N(c2cccc(C(F)(F)F)c2)C(=O)N(C)C1c1ccc(C#N)cc1C(=O)N(C)Cc1ccnn1C (stereo not shown) [Example 1.76] | < 1
